In patent US6313111A, “Substituted 6H-1,3,4-thiadiazine-2-amines, the use thereof as anaesthetising, cardiovascular and hypometabolic agents, and pharmaceutical composition containing them” (priority 1998, dated 2001):
Where “and” joins values, the source holds several entries; their conditions need not be identical. Equal entries are not always repeated. Structures can show the parent of a compound that is named as a salt.

What was measured:
[1] = rectal (body) temperature of mice measured with medicinal electrothermometer TREM-1; format: in vivo, mice of the BALB line; details: for body temperature: i.p.
Protocol: In all cases tests were carried out on mice of the BALB line of 3-4 month age. […] In the case of water-soluble compounds, aqueous solutions of the test compounds were injected intraperitoneally (i.p.), while water-insoluble compounds were introduced orally (p.o.).
Rectal temperature changes (absolute magnitues in ° C.) were measured using a medicinal electrothermometer TREM-1 (Table 1). The rate of oxygen consumption was monitored by measuring concentration of oxygen in a closed testing unit with optic-acoustic gas analyser MN 5130. The data on oxygen consumption are given in percents relative to the starting content of oxygen taken as 100%. (Table 2).
Rectal temperature of mice was followed in dynamics after 5, 15, 30, 60, 120, 180, 240, 300, and 360 minutes (Table 3). […] The same decrease in temperature at 190 mg/kg dosage was reached after 15 minutes; in 1.5 hours it reached 22-25° C. and maintained this level over the next 5 hours, that is 13-17° C. below the initial value. After one day, body temperature was restored to the value of 94-96% of initial.

[2] = lethal dose (LD16, LD50) in mice; format: in vivo, mice of the BALB line

Q: With `c1ccc(C2=NN=C(N3CCOCC3)SC2)cc1` [Compound 1, 2-Morpholino-5-phenyl-6H-1,3,4-thiadiazine, hydrobromide] as the compound, how does the “body temperature (T)” value ([1]; 190.0 mg/kg i.p., 20 min) read?
A: The value was 30.8 ± 0.2 °C.

Q: What about the “body temperature (T)” value ([1]; 190.0 mg/kg i.p., 30 min, hydrobromide) of the same compound?
A: Its value is 26.9 ± 0.4 °C and 26.9 °C.

Q: What about the “body temperature (T)” value ([1]; 190.0 mg/kg i.p., 40 min) of the same compound?
A: Its value is 25.9 ± 0.3 °C.

Q: What about the “body temperature (T)” value ([1]; 190.0 mg/kg i.p., 60 min) of the same compound?
A: The value was 23.5 ± 0.2 °C.

Q: What about the “body temperature (T)” value ([1]; 190.0 mg/kg i.p., 90 min) of the same compound?
A: Its value is 21.4 ± 0.2 °C.

Q: And the “body temperature (T)” value ([1]; 190.0 mg/kg i.p., 120 min)?
A: Its value is 23.0 ± 0.8 °C.

Q: And the “body temperature (T)” value ([1]; 190.0 mg/kg i.p., 180 min)?
A: The value was 20.9 ± 0.1 °C.

Q: What about the “body temperature (T)” value ([1]; 190.0 mg/kg i.p., 210 min) of the same compound?
A: The value was 21.4 °C.

Q: What about the “body temperature (T)” value ([1]; 190.0 mg/kg i.p., 240 min) of the same compound?
A: Its value is 21.1 ± 0.1 °C.

Q: What about the “body temperature (T)” value ([1]; 190.0 mg/kg i.p., 270 min) of the same compound?
A: Its value is 20.8 ± 0.3 °C.

Q: And the “body temperature (T)” value ([1]; 190.0 mg/kg i.p., 300 min, hydrobromide)?
A: The value was 20.2 ± 0.0 °C and 20.2 ± 0.2 °C.

Q: And the “body temperature (T)” value ([1]; 190.0 mg/kg i.p., 330 min)?
A: The value was 19.8 ± 0.2 °C.

Q: And the “body temperature (T)” value ([1]; 190.0 mg/kg i.p., 390 min)?
A: The value was 19.8 ± 0.2 °C.

Q: What about the “body temperature (T)” value ([1]; 190.0 mg/kg i.p., 1140 min) of the same compound?
A: Its value is 36.9 °C.

Q: What about the “body temperature (T)” value ([1]; 190.0 mg/kg i.p., 1620 min) of the same compound?
A: Its value is 37.9 ± 0.4 °C.

Q: And the “body temperature (T)” value ([1]; 190.0 mg/kg i.p., 1980 min)?
A: Its value is 36.9 ± 0.3 °C.

Q: What about the “time over which the temperature level was maintained” value ([1]; 190 mg/kg i.p., after reaching 22-25° C. in 1.5 hours) of the same compound?
A: Its value is 5 h.

Q: And the “body temperature below the initial value” ([1]; 190 mg/kg i.p., from 1.5 hours over the next 5 hours)?
A: The value was 13-17 °C.

Q: And the “body temperature level reached” value ([1]; 190 mg/kg i.p., in 1.5 hours)?
A: Its value is 22-25 °C.

Q: And the “body temperature (T)” value ([1]; 279.0 mg/kg i.p., 0 min)?
A: Its value is 38.9 ± 0.6 °C.

Q: What about the “body temperature (T)” value ([1]; 279.0 mg/kg i.p., 10 min) of the same compound?
A: Its value is 35.8 ± 0.1 °C.

Q: What about the “body temperature (T)” value ([1]; 279.0 mg/kg i.p., 20 min) of the same compound?
A: The value was 30.2 ± 0.1 °C.

Q: And the “body temperature (T)” value ([1]; 279.0 mg/kg i.p., 30 min)?
A: Its value is 27.1 °C.

Q: What about the “body temperature (T)” value ([1]; 279.0 mg/kg i.p., 40 min) of the same compound?
A: Its value is 24.7 ± 0.2 °C.

Q: What about the “body temperature (T)” value ([1]; 279.0 mg/kg i.p., 60 min) of the same compound?
A: The value was 21.0 ± 0.1 °C.

Q: And the “body temperature (T)” value ([1]; 279.0 mg/kg i.p., 90 min)?
A: The value was 20.0 ± 0.1 °C.

Q: What about the “body temperature (T)” value ([1]; 279.0 mg/kg i.p., 120 min) of the same compound?
A: Its value is 21.0 ± 0.3 °C.

Q: What about the “body temperature (T)” value ([1]; 279.0 mg/kg i.p., 180 min) of the same compound?
A: The value was 21.2 ± 0.2 °C.

Q: What about the “body temperature (T)” value ([1]; 279.0 mg/kg i.p., 210 min) of the same compound?
A: Its value is 21.2 °C.

Q: What about the “body temperature (T)” value ([1]; 279.0 mg/kg i.p., 240 min) of the same compound?
A: Its value is 20.8 ± 0.1 °C.

Q: And the “body temperature (T)” value ([1]; 279.0 mg/kg i.p., 270 min)?
A: The value was 21.5 ± 0.1 °C.

Q: And the “body temperature (T)” value ([1]; 279.0 mg/kg i.p., 300 min)?
A: Its value is 21.3 ± 0.3 °C.

Q: What about the “body temperature (T)” value ([1]; 279.0 mg/kg i.p., 330 min) of the same compound?
A: The value was 22.5 ± 0.3 °C.

Q: What about the “body temperature (T)” value ([1]; 279.0 mg/kg i.p., 390 min) of the same compound?
A: Its value is 19.4 ± 0.3 °C.

Q: And the “body temperature (T)” value ([1]; 279.0 mg/kg i.p., 1140 min)?
A: The value was 20.8 °C.

Q: And the “body temperature (T)” value ([1]; 279.0 mg/kg i.p., 1620 min)?
A: The value was 22.6 ± 0.9 °C.

Q: What about the “body temperature (T)” value ([1]; 279.0 mg/kg i.p., 1980 min) of the same compound?
A: Its value is 21.2 ± 0.3 °C.

Q: And the “body temperature (T)” value ([1]; 365.0 mg/kg i.p., 0 min)?
A: Its value is 39.6 ± 0.1 °C.

Q: What about the “body temperature (T)” value ([1]; 365.0 mg/kg i.p., 10 min) of the same compound?
A: Its value is 35.4 ± 0.2 °C.

Q: And the “body temperature (T)” value ([1]; 365.0 mg/kg i.p., 20 min)?
A: Its value is 30.1 ± 0.2 °C.

Q: What about the “body temperature (T)” value ([1]; 365.0 mg/kg i.p., 30 min) of the same compound?
A: Its value is 27.2 °C.

Q: What about the “body temperature (T)” value ([1]; 365.0 mg/kg i.p., 40 min) of the same compound?
A: Its value is 25.5 ± 0.2 °C.

Q: What about the “body temperature (T)” value ([1]; 365.0 mg/kg i.p., 60 min) of the same compound?
A: The value was 23.3 ± 0.3 °C.

Q: What about the “body temperature (T)” value ([1]; 365.0 mg/kg i.p., 90 min) of the same compound?
A: The value was 21.5 ± 0.2 °C.

Q: What about the “body temperature (T)” value ([1]; 365.0 mg/kg i.p., 120 min) of the same compound?
A: Its value is 20.9 ± 0.2 °C.

Q: What about the “body temperature (T)” value ([1]; 365.0 mg/kg i.p., 180 min) of the same compound?
A: Its value is 21.4 ± 0.1 °C.

Q: What about the “body temperature (T)” value ([1]; 365.0 mg/kg i.p., 210 min) of the same compound?
A: Its value is 21.2 °C.

Q: What about the “body temperature (T)” value ([1]; 365.0 mg/kg i.p., 240 min) of the same compound?
A: Its value is 21.1 ± 0.0 °C.

Q: And the “body temperature (T)” value ([1]; 365.0 mg/kg i.p., 270 min)?
A: Its value is 21.4 ± 0.7 °C.

Q: What about the “body temperature restored, % of initial” value ([1]; after one day, 190 mg/kg i.p.) of the same compound?
A: The value was 94-96%.

Q: And the “body temperature (T)” value ([1]; dose 36.5 mg/kg (1.06 mM/kg) i.p., 300 min)?
A: Its value is 22.1 ± 0.0 °C.

Q: What about the “body temperature (T)” value ([1]; dose 36.5 mg/kg (1.06 mM/kg) i.p., 330 min) of the same compound?
A: The value was 21.5 ± 0.1 °C.

Q: What about the “body temperature (T)” value ([1]; dose 36.5 mg/kg (1.06 mM/kg) i.p., 390 min) of the same compound?
A: Its value is 20.0 ± 0.2 °C.

Q: What about the “body temperature (T)” value ([1]; dose 36.5 mg/kg (1.06 mM/kg) i.p., 1140 min) of the same compound?
A: The value was 20.8 °C.

Q: What about the “body temperature (T)” value ([1]; dose 36.5 mg/kg (1.06 mM/kg) i.p., 1620 min) of the same compound?
A: The value was 21.6 ± 0.1 °C.

Q: What about the “body temperature (T)” value ([1]; dose 36.5 mg/kg (1.06 mM/kg) i.p., 1980 min) of the same compound?
A: Its value is 22.1 ± 0.2 °C.

Q: What about the body temperature ([1]; 0 min, mg/kg: cpd 1 190.0, cpd 2 178.0, cpd 5 190.0, cpd 6 160.0) of the same compound?
A: Its body temperature is 39.2 °C.

Q: What about the body temperature ([1]; 30 min, mg/kg: cpd 1 190.0, cpd 2 178.0, cpd 5 190.0, cpd 6 160.0) of the same compound?
A: The body temperature was 26.9 °C.

Q: And the body temperature ([1]; 60 min, mg/kg: cpd 1 190.0, cpd 2 178.0, cpd 5 190.0, cpd 6 160.0)?
A: Its body temperature is 23.5 °C.

Q: And the body temperature ([1]; 90 min, mg/kg: cpd 1 190.0, cpd 2 178.0, cpd 6 160.0)?
A: Its body temperature is 21.4 °C.

Q: And the body temperature ([1]; 120 min, mg/kg: cpd 1 190.0, cpd 2 178.0, cpd 5 190.0, cpd 6 160.0)?
A: The body temperature was 23.0 °C.

Q: And the body temperature ([1]; 180 min, mg/kg: cpd 1 190.0, cpd 2 178.0, cpd 5 190.0, cpd 6 160.0)?
A: Its body temperature is 20.9 °C.

Q: And the body temperature ([1]; 240 min, mg/kg: cpd 1 190.0, cpd 2 178.0, cpd 5 190.0, cpd 6 160.0)?
A: Its body temperature is 21.1 °C.

Q: What about the body temperature ([1]; 300 min, mg/kg: cpd 1 190.0, cpd 2 178.0, cpd 6 160.0) of the same compound?
A: The body temperature was 20.2 °C.

Q: What about the “1/2 LD16, calculated” value ([2]; i.p.) of the same compound?
A: Its value is 140 mg/kg.

Q: And the “1/2 LD16, experimental” value ([2]; i.p.)?
A: Its value is 190 mg/kg.

Q: And the “1/16 LD16 (lower end of dose range 1/16 LD16 -LD50)” value ([2]; i.p.)?
A: The value was 10 mg/kg.

Q: What about the LD50 ([2]; mouse, in vivo, ip, read-out: LD50 (upper end of dose range 1/16 LD16 -LD50)) of the same compound?
A: Its LD50 is 365 mg/kg.
